Experimental data reported in PubChem BioAssay (NCI).
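All cell lines were grown in 96-well plates and treated with compound for 48 hours. GI50 = concentration required for 50% inhibition of growth. TGI: total growth inhibition.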

Key:
Test in all cases: growth of human tumour cells (NCI), 48 h
A498 renal = system: A498 renal
A549 NSCLC = system: A549 NSCLC
COLO 205 colon = system: COLO 205 colon
HCT-116 colon = system: HCT-116 colon
HCT-15 colon = system: HCT-15 colon
HT29 colon = system: HT29 colon
MDA-MB-231 breast = system: MDA-MB-231 breast
SK-MEL-5 melanoma = system: SK-MEL-5 melanoma
SK-OV-3 ovarian = system: SK-OV-3 ovarian
SN12C renal = system: SN12C renal

Row | SMILES | TGI (A498 renal) | TGI (A549 NSCLC) | TGI (COLO 205 colon) | TGI (HCT-116 colon) | TGI (HCT-15 colon) | TGI (HT29 colon) | TGI (MDA-MB-231 breast) | TGI (SK-MEL-5 melanoma) | TGI (SK-OV-3 ovarian) | TGI (SN12C renal) | GI50 (A498 renal) | GI50 (COLO 205 colon) | GI50 (HCT-116 colon) | GI50 (HCT-15 colon) | GI50 (HT29 colon) | GI50 (MDA-MB-231 breast) | GI50 (SK-MEL-5 melanoma) | GI50 (SK-OV-3 ovarian) | GI50 (SN12C renal) | GI50 (A549 NSCLC)
1 | O=Nn1c2ccccc2c2ccccc21 | 75.7 µM | > 100 µM | 33.2 µM | > 100 µM | > 100 µM | > 100 µM | > 100 µM | > 100 µM | > 100 µM | > 100 µM |  |  |  |  |  |  |  |  |  | 
2 | CCOC(=O)CCCc1cc(=O)c2c(C)c3[nH]c4ccc(Cl)cc4c3c(C)c2[nH]1 | 36.5 µM | 43.5 µM | > 100 µM | > 100 µM | > 100 µM | 53.8 µM | 69.7 µM | 49.2 µM |  | 95.3 µM |  |  |  |  |  |  |  |  |  | 
3 | CC(=O)OC/C=C\Cn1ncc(=O)[nH]c1=O | 31.9 µM | 58.9 µM | 37.9 µM |  | 37.5 µM | 29.9 µM | 68 µM | 26.7 µM |  | 42 µM |  |  |  |  |  |  |  |  |  | 
4 | Nc1ccc(C2(c3ccc(N)cc3)C3CC4CC(C3)CC2C4)cc1 | 41.3 µM |  |  | 42.1 µM | 37.2 µM | 26.3 µM | 37.5 µM |  | 30 µM | 45.7 µM |  |  |  |  |  |  |  |  |  | 
5 | CC=C/C=C/[C@@H]1O[C@](O)([C@H](CC)C(=O)NC/C=C/C=C(\C)[C@@H](OC)[C@@H](C)[C@@H]2O[C@H](/C=C/C=C/C=C(\C)C(=O)c3c(O)cc[nH]c3=O)[C@H](O)[C@@H]2O)[C@H](O)[C@H](O)C1(C)C | > 100 µM | > 100 µM |  |  | > 100 µM | > 100 µM |  |  | > 100 µM |  |  |  |  |  |  |  |  |  |  | 
6 | Fc1ccc(C2CC(c3cccc(Nc4ccncc4)c3)=NN2c2ccccc2)cc1 (stereo not given) | 6.92 µM |  | 4.91 µM | 3.12 µM | 3.49 µM | 5.09 µM | 2.95 µM | 3.22 µM | 19.9 µM | 3.21 µM | 0.446 µM | 2.35 µM | 1.49 µM | 1.68 µM | 2.13 µM | 1.57 µM | 1.78 µM | 5.7 µM | 1.71 µM | 
7 | Nc1nc(N)c(N=Nc2ccccc2)c(=O)[nH]1 | > 100 µM | > 100 µM | > 100 µM | > 100 µM | > 100 µM | > 100 µM |  | > 100 µM | > 100 µM | > 100 µM |  |  |  |  |  |  |  |  |  | 
8 | CCOP(=O)(OCC)C(Cc1c[nH]c2ccccc12)C(=O)O (stereo not given) | > 100 µM | > 100 µM | > 100 µM | > 100 µM | > 100 µM | > 100 µM | > 100 µM | > 100 µM | > 100 µM | > 100 µM |  |  |  |  |  |  |  |  |  | 
9 | O=S1(=O)C[C@H](NCc2ccccc2)[C@H](NCc2ccccc2)C1 |  | > 100 µM | > 100 µM | > 100 µM |  | > 100 µM | > 100 µM | > 100 µM | > 100 µM | > 100 µM |  |  |  |  |  |  |  |  |  | 
10 | COc1ncnc2c(Cl)c(C(O)c3ccccc3)c(Cl)cc12 (stereo not given) | 53.2 µM | > 100 µM | > 100 µM | 44.1 µM | > 100 µM | > 100 µM | 58.6 µM | > 100 µM | 49 µM | 86.8 µM |  |  |  |  |  |  |  |  |  | 
11 | Cc1ccc(S(=O)(=O)NCCCSCCN)cc1 | > 100 µM | > 100 µM | > 100 µM | > 100 µM | > 100 µM | > 100 µM | > 100 µM | > 100 µM | > 100 µM | > 100 µM |  |  |  |  |  |  |  |  |  | 
12 | COc1ccc(/C=C/c2cc(O)cc(OC3OC(CO)C(O)C(O)C3O)c2)cc1O (stereo not given) | > 100 µM | > 100 µM | > 100 µM | > 100 µM | > 100 µM | > 100 µM | > 100 µM | > 100 µM | > 100 µM | > 100 µM |  |  |  |  |  |  |  |  |  | 
13 | OCC1NC(CO)C(O)C1O (stereo not given) | > 100 µM |  | > 100 µM | > 100 µM | > 100 µM | > 100 µM | > 100 µM | > 100 µM | > 100 µM | > 100 µM |  |  |  |  |  |  |  |  |  | 
14 | O=C(Nc1ccc(C(F)(F)F)cc1[N+](=O)[O-])C(=O)Nn1c(=S)[nH]c2ccccc2c1=O | > 100 µM | > 100 µM | > 100 µM | > 100 µM | > 100 µM | > 100 µM |  | > 100 µM | > 100 µM | > 100 µM |  |  |  |  |  |  |  |  |  | 
15 | CC(C)N(CCNc1nc(C(Cl)(Cl)Cl)nc2cc(Cl)ccc12)C(C)C | 2.66 µM | 3.15 µM | 3.61 µM | 2.66 µM | 2.48 µM | 1.85 µM | 2.46 µM | 2.93 µM |  | 3.76 µM | 1.27 µM | 1.8 µM | 1.31 µM | 1.12 µM | 0.523 µM | 1.1 µM | 1.56 µM |  | 1.69 µM | 1.67 µM
